The record followed here is article PMC6222476 (Molecules : A Journal of Synthetic Chemistry and Natural …, 2018).

Series [1] concerns IMR-32 neuroblastoma cell line. Nature of the series: cells. It is filed as cell-based, human. Conditions: SRB assay, 48 h. Here is the method: (§1) All the newly synthesized compounds were screened for their in vitro anticancer activity against six cancer cell lines: SK-MEL-2, MCF-7, IMR-32, MG-63, HT-29 and Hep-G2 by SRB assay, using adriamycin as a standard drug. All the synthesized derivatives 4(a–n) were also tested for their cytotoxic effect on normal cell lines i.e., NIH/3T3 (murine embryonic fibroblast by the SRB assay method. The cell lines were grown in RPMI 1640 medium containing 10% fetal bovine serum and 2 mM L-glutamine. For the present screening experiments, cells were inoculated into 96 well microtiter plates in 90 µL at 5000 cells per well. After cell inoculation, the microtiter plates were incubated at 37 °C, 5% CO2, 95% air and 100% relative humidity for 24 h prior to addition of experimental drugs. Experimental drugs were solubilized in appropriate solvent to prepare stock of 10^−2 concentration. At the time of experiment four 10-fold serial dilutions were made using complete medium. Aliquots of 10 µL of these different drug dilutions were added to the appropriate micro-titer wells already containing 90 µL of medium, resulting in the required final drug concentrations. After compound addition, plates were incubated at standard conditions for 48 h. and assay was terminated by the addition of cold trichloroacetic acid (TCA). Cells were fixed in situ by the gentle addition of […] (final concentration, 10% TCA) and incubated for 60 min at 4 °C. The supernatant was discarded; the plates were washed five times with tap water and air dried.
(§2) Sulforhodamine B (SRB) solution (50 µL) at 0.4% (w/v) in 1% acetic acid was added to each of the wells, and plates were incubated for 20 min at room temperature. After staining, unbound dye was recovered and the residual dye was removed by washing five times with 1% acetic acid. The plates were air dried. Bound stain was subsequently eluted with 10 mM trizma base, and the absorbance was read on an ELISA plate reader at a wavelength of 540 nm with 690 nm reference wavelength. All the tests were repeated in at least three independent experiments at the concentrations of 10, 20, 40 and 80 µg/mL [57].

For series [2], the system named is NIH/3T3 normal murine embryonic fibroblast cell line. The series can be described thus: in vitro. Conditions: SRB assay. It is filed as cell-based. The procedure: as §1, §2
(In general: Sulforhodamine B stains cellular protein and so reports cell mass.)

For series [3], the system named is SK-MEL-2 human melanoma cancer cell line. The series can be described thus: cells. It is filed as cell-based. The settings on record: SRB assay, 48 h, read-out: GI50 SKMEL-2. The procedure: as §1, §2
The test system of series [4] is MCF-7 human breast cancer cell line. The series can be described thus: cells. Type of series: cell-based. Conditions: SRB assay, 48 h. The procedure:
as §1, §2

The test system of series [5] is HT-29 human colon cancer cell line. Nature of the series: cells. It is filed as cell-based. The settings on record: for anticancer activity compared with standard drug adriamycin, HT-29: HT-29 (human colon cancer) cell line; for GI50: SRB assay, 48 h, HT-29. The procedure:
as §1, §2

Series [6] concerns MG-63 human osteosarcoma cell line. Nature of the series: cells. It is filed as cell-based. Conditions: SRB assay, 48 h. Here is the method:
as §1, §2

For series [7], the system named is Hep-G2 human hepatoma cell line. The series can be described thus: cells. The settings on record: for GI50: SRB assay, 48 h, Hep-G2. It is filed as cell-based. The procedure:
as §1, §2

The structures appear in SMILES notation.

The term GI50 denotes the concentration giving 50% growth inhibition. Take `CCOP(=O)(OCC)C(N/N=C1\C(=O)Nc2ccccc21)c1cccs1` (centres unmarked) [4i, (Z)-Diethyl(2-(2-oxoindolin-3-ylidene)hydrazinyl)(thiophen-2-yl)methylphosphonate]: the concentration for 50% growth inhibition (GI50) was greater than 100 µM in series [1]; greater than 250 µM in series [2]; 55.5 µM in series [3]; greater than 100 µM in series [4]; less than 0.1 µM in series [5]; less than 0.1 µM in series [6]. Also, the GI50 in series [7] is less than 0.1 µM. Moreover, the “anticancer activity compared with standard drug adriamycin, HT-29” value in series [5] is recorded as “equipotent”. Also, the “anticancer activity compared with standard drug Adriamycin, Hep-G2” value in series [7] (Hep-G2 (human hepatoma) cell line) is on record as “equipotent”.
On to `CCOP(=O)(OCC)C(NN=C1C(=O)Nc2ccccc21)c1ccc(OC)c(OC)c1` (centres unmarked) [4e, Diethyl(3,4-dimethoxyphenyl)(2-(2-oxoindolin-3-ylidene)hydrazinyl)methylphosphonate], for which the concentration for 50% growth inhibition (GI50) in series [1] is greater than 100 µM; in series [2], greater than 250 µM; in series [3], 55.2 µM; in series [4] it was greater than 100 µM; in series [5], less than 0.1 µM; in series [6], less than 0.1 µM. The compound also yielded a concentration for 50% growth inhibition (GI50) in series [7] of 12.2 µM. Besides, the “anticancer activity compared with standard drug adriamycin, HT-29” value in series [5] is given as “equipotent”.
As to `CCOP(=O)(OCC)C(NN=C1C(=O)Nc2ccccc21)c1ccc(OC)cc1` (centres unmarked) [4d, (Z)-Diethyl(4-methoxyphenyl)(2-(2-oxoindolin-3-ylidene)hydrazinyl)methylphosphonate], the GI50 in series [1] is greater than 100 µM; in series [2], greater than 250 µM; in series [3] it was 65.7 µM; in series [4], greater than 100 µM; in series [5] it was less than 0.1 µM; in series [6], less than 0.1 µM. The compound also returned a GI50 in series [7] of 45.3 µM. Besides, the “anticancer activity compared with standard drug adriamycin, HT-29” value in series [5] was “equipotent”.
Regarding `CCOP(=O)(OCC)C(NN=C1C(=O)Nc2ccccc21)c1ccco1` (centres unmarked) [4j, (Z)-Diethylfuran-2-yl(2-(2-oxoindolin-3-ylidene)hydrazinyl)methylphosphonate], the concentration for 50% growth inhibition (GI50) was greater than 100 µM in series [1]; greater than 250 µM in series [2]; 93.9 µM in series [3]; greater than 100 µM in series [4]; less than 0.1 µM in series [5]; less than 0.1 µM in series [6]. In series [7], the GI50 came out at 44.6 µM. Also, the “anticancer activity compared with standard drug adriamycin, HT-29” value in series [5] is “equipotent”.
`CCOP(=O)(OCC)C(NN=C1C(=O)Nc2ccccc21)c1ccccc1` (centres unmarked) [4a, Diethyl(phenyl)(2-(2-oxoindolin-3-ylidene)hydrazinyl)methylphosphonate]: the concentration for 50% growth inhibition (GI50) was greater than 100 µM in series [1]; greater than 250 µM in series [2]; 56.9 µM in series [3]; greater than 100 µM in series [4]; 56.9 µM in series [5]; less than 0.1 µM in series [6]. Moreover, in series [7], the GI50 came to 55.2 µM.
With `CCOP(=O)(OCC)C(NN=C1C(=O)Nc2ccccc21)c1ccc(F)cc1` (centres unmarked) [4c, Diethyl(4-flurophenyl)(2-(2-oxoindolin-3-ylidene)hydrazinyl)methylphosphonate], the 50% growth inhibitory concentration (GI50) in series [1] is greater than 100 µM; in series [2], greater than 250 µM; in series [3], 57.5 µM; in series [4], greater than 100 µM; in series [5], 20.8 µM; in series [6], less than 0.1 µM. The same compound returned a 50% growth inhibitory concentration (GI50) in series [7] of 32 µM.
